As a reminder, the pIC50 is the negative decadic logarithm of the IC50, by convention in mol/L.

pIC50: −log10 of the molar value. Bridge positions count the residues as written; N and C are the ends. Square brackets hold non-standard residues; d marks the D form. Peptide text beside a SMILES is read from it. * marks the point of attachment. Tyr(3,5-F2) = N[C@@H](Cc1cc(F)c(O)c(F)c1)C(=O)O; Phe(4-CONH2) = NC(=O)c1ccc(C[C@H](N)C(=O)O)cc1; Bip = N[C@@H](Cc1ccc(-c2ccccc2)cc1)C(=O)O; Phe(3-OMe) = COc1cccc(C[C@H](N)C(=O)O)c1; Phe(4-CN) = N#Cc1ccc(C[C@H](N)C(=O)O)cc1; Phe(3-Me) = Cc1cccc(C[C@H](N)C(=O)O)c1; Phe(4-Me) = Cc1ccc(C[C@H](N)C(=O)O)cc1; Phe(2-F) = N[C@@H](Cc1ccccc1F)C(=O)O; Val(3-OH) = CC(C)(O)[C@H](N)C(=O)O; 4Pal = N[C@@H](Cc1ccncc1)C(=O)O; 2Thi = N[C@@H](Cc1cccs1)C(=O)O; Cha = N[C@@H](CC1CCCCC1)C(=O)O; Gly(cPr) = N[C@H](C(=O)O)C1CC1; Phg = N[C@H](C(=O)O)c1ccccc1; Carboxymethyl = O=C(O)C*; Orn = NCCC[C@H](N)C(=O)O; Aun = NCCCCCCCCCCC(=O)O; Dab = NCC[C@H](N)C(=O)O

In the experiment the target is T1, PD-1/PD-L1 interaction (PE-labeled human PD-L1-Ig binding to Jurkat cell line over-expressing human PD-1) (Homo sapiens, UniProt Q15116).
T1 construct: expressed in transfected cells; host or cells: Jurkat
T1 sequence (Q15116 25-288): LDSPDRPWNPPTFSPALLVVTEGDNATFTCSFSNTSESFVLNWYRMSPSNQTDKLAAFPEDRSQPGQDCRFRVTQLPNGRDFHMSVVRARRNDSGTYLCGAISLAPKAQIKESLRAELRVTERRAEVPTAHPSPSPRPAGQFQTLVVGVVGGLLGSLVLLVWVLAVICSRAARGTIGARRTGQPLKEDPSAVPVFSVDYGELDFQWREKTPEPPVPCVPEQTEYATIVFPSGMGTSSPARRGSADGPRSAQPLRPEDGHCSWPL
Description: Jurkat-PD-1 Cell Binding High-Content Screening Assay (CBA). The settings on record: Jurkat cell line over-expressing human PD-1; PE-labeled PD-L1-Ig 20 nM final; read-out: Jurkat hPD1-PDL1 IC50. The class given is cell-based. In short, it runs like this: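 Binding of fluorescent PD-L1-Ig (20 nM final) to Jurkat-PD-1 cells was measured by automated imaging after 1 h, following a 2 h compound pre-treatment at 37° C.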
Take `COc1ccc(C[C@@H]2NC(=O)CSC[C@@H](C(=O)N[C@@H](CCN)C(=O)NCCCCCCCCCCC(=O)O)NC(=O)[C@H](CO)NC(=O)[C@H](C(C)(C)O)NC(=O)[C@H](CC3CCCCC3)NC(=O)[C@H](CCN)NC(=O)[C@@H](CC(C)C)NC(=O)[C@H](CCCN)NC(=O)[C@H](Cc3ccc(OCC(=O)O)cc3)NC(=O)[C@H](Cc3ccc(-c4ccccc4)cc3)NC(=O)[C@H](Cc3ccc(OCC(=O)O)cc3)NC(=O)[C@H](Cc3cccc(C)c3)NC(=O)[C@H](CC(=O)O)NC(=O)[C@H](Cc3ccc(OCC(=O)O)cc3)NC2=O)cc1` [Compound 2181] ({CH2CO}-Y(Me)Y(Carboxymethyl)D[Phe(3-Me)]Y(Carboxymethyl)[Bip]Y(Carboxymethyl)[Orn][dL][Dab][Cha][Val(3-OH)]SC[Dab][Aun]-OH; thioether N-14): the pIC50 is 7.75.

With `Cc1cccc(C[C@@H]2NC(=O)[C@H](CC(=O)O)NC(=O)[C@H](Cc3ccc(OCC(=O)O)cc3)NC(=O)[C@H](Cc3cccs3)NC(=O)CSC[C@@H](C(=O)N[C@@H](CCN)C(=O)NCCCCCCCCCCC(=O)O)NC(=O)[C@H](CO)NC(=O)[C@H](C(C)(C)O)NC(=O)[C@H](CC3CCCCC3)NC(=O)[C@H](CCN)NC(=O)[C@@H](CC(C)C)NC(=O)[C@H](CCCN)NC(=O)[C@H](Cc3ccc(OCC(=O)O)cc3)NC(=O)[C@H](Cc3ccc(-c4ccccc4)cc3)NC(=O)[C@H](Cc3ccc(OCC(=O)O)cc3)NC2=O)c1` [Compound 2182] ({CH2CO}-[2Thi]Y(Carboxymethyl)D[Phe(3-Me)]Y(Carboxymethyl)[Bip]Y(Carboxymethyl)[Orn][dL][Dab][Cha][Val(3-OH)]SC[Dab][Aun]-OH; thioether N-14), the pIC50 is 7.81.

For the compound `Cc1cccc(C[C@@H]2NC(=O)[C@H](CC(=O)O)NC(=O)[C@H](Cc3ccc(OCC(=O)O)cc3)NC(=O)[C@H](Cc3ccc(C#N)cc3)NC(=O)CSC[C@@H](C(=O)N[C@@H](CCN)C(=O)NCCCCCCCCCCC(=O)O)NC(=O)[C@H](CO)NC(=O)[C@H](C(C)(C)O)NC(=O)[C@H](CC3CCCCC3)NC(=O)[C@H](CCN)NC(=O)[C@@H](CC(C)C)NC(=O)[C@H](CCCN)NC(=O)[C@H](Cc3ccc(OCC(=O)O)cc3)NC(=O)[C@H](Cc3ccc(-c4ccccc4)cc3)NC(=O)[C@H](Cc3ccc(OCC(=O)O)cc3)NC2=O)c1` [Compound 2183] ({CH2CO}-[Phe(4-CN)]Y(Carboxymethyl)D[Phe(3-Me)]Y(Carboxymethyl)[Bip]Y(Carboxymethyl)[Orn][dL][Dab][Cha][Val(3-OH)]SC[Dab][Aun]-OH; thioether N-14), the pIC50 was 7.88.

As for `Cc1cccc(C[C@@H]2NC(=O)[C@H](CC(=O)O)NC(=O)[C@H](Cc3ccc(OCC(=O)O)cc3)NC(=O)[C@H](Cc3ccncc3)NC(=O)CSC[C@@H](C(=O)N[C@@H](CCN)C(=O)NCCCCCCCCCCC(=O)O)NC(=O)[C@H](CO)NC(=O)[C@H](C(C)(C)O)NC(=O)[C@H](CC3CCCCC3)NC(=O)[C@H](CCN)NC(=O)[C@@H](CC(C)C)NC(=O)[C@H](CCCN)NC(=O)[C@H](Cc3ccc(OCC(=O)O)cc3)NC(=O)[C@H](Cc3ccc(-c4ccccc4)cc3)NC(=O)[C@H](Cc3ccccc3F)NC2=O)c1` [Compound 2184] ({CH2CO}-[4Pal]Y(Carboxymethyl)D[Phe(3-Me)][Phe(2-F)][Bip]Y(Carboxymethyl)[Orn][dL][Dab][Cha][Val(3-OH)]SC[Dab][Aun]-OH; thioether N-14), the pIC50 was 7.99.

As to `Cc1cccc(C[C@@H]2NC(=O)[C@H](CC(=O)O)NC(=O)[C@H](Cc3ccc(OCC(=O)O)cc3)NC(=O)[C@H](Cc3ccncc3)NC(=O)CSC[C@@H](C(=O)N[C@@H](CCN)C(=O)NCCCCCCCCCCC(=O)O)NC(=O)[C@H](CO)NC(=O)[C@H](C(C)(C)O)NC(=O)[C@H](CC3CCCCC3)NC(=O)[C@H](CCN)NC(=O)[C@@H](CC(C)C)NC(=O)[C@H](CCCN)NC(=O)[C@H](Cc3ccc(OCC(=O)O)cc3)NC(=O)[C@H](Cc3ccc(-c4ccccc4)cc3)NC(=O)[C@H](Cc3cc(F)c(O)c(F)c3)NC2=O)c1` [Compound 2185] ({CH2CO}-[4Pal]Y(Carboxymethyl)D[Phe(3-Me)][Tyr(3,5-F2)][Bip]Y(Carboxymethyl)[Orn][dL][Dab][Cha][Val(3-OH)]SC[Dab][Aun]-OH; thioether N-14), the pIC50 is 8.02.

With `COc1cccc(C[C@@H]2NC(=O)[C@H](Cc3cccc(C)c3)NC(=O)[C@H](CC(=O)O)NC(=O)[C@H](Cc3ccc(OCC(=O)O)cc3)NC(=O)[C@H](Cc3ccncc3)NC(=O)CSC[C@@H](C(=O)N[C@@H](CCN)C(=O)NCCCCCCCCCCC(=O)O)NC(=O)[C@H](CO)NC(=O)[C@H](C(C)(C)O)NC(=O)[C@H](CC3CCCCC3)NC(=O)[C@H](CCN)NC(=O)[C@@H](CC(C)C)NC(=O)[C@H](CCCN)NC(=O)[C@H](Cc3ccc(OCC(=O)O)cc3)NC(=O)[C@H](Cc3ccc(-c4ccccc4)cc3)NC2=O)c1` [Compound 2186] ({CH2CO}-[4Pal]Y(Carboxymethyl)D[Phe(3-Me)][Phe(3-OMe)][Bip]Y(Carboxymethyl)[Orn][dL][Dab][Cha][Val(3-OH)]SC[Dab][Aun]-OH; thioether N-14), the pIC50 was 7.85.

Consider `Cc1cccc(C[C@@H]2NC(=O)[C@H](CC(=O)O)NC(=O)[C@H](Cc3ccc(OCC(=O)O)cc3)NC(=O)[C@H](Cc3ccncc3)NC(=O)CSC[C@@H](C(=O)N[C@@H](CCN)C(=O)NCCCCCCCCCCC(=O)O)NC(=O)[C@H](CO)NC(=O)[C@H](C(C)(C)O)NC(=O)[C@H](CC3CCCCC3)NC(=O)[C@H](CCN)NC(=O)[C@@H](CC(C)C)NC(=O)[C@H](CCCN)NC(=O)[C@H](Cc3ccc(OCC(=O)O)cc3)NC(=O)[C@H](Cc3ccc(-c4ccccc4)cc3)NC(=O)[C@H](C(C)(C)O)NC2=O)c1` [Compound 2187] ({CH2CO}-[4Pal]Y(Carboxymethyl)D[Phe(3-Me)][Val(3-OH)][Bip]Y(Carboxymethyl)[Orn][dL][Dab][Cha][Val(3-OH)]SC[Dab][Aun]-OH; thioether N-14), for which the pIC50 is 7.50.

`Cc1cccc(C[C@@H]2NC(=O)[C@H](CC(=O)O)NC(=O)[C@H](Cc3ccc(OCC(=O)O)cc3)NC(=O)[C@H](Cc3ccncc3)NC(=O)CSC[C@@H](C(=O)N[C@@H](CCN)C(=O)NCCCCCCCCCCC(=O)O)NC(=O)[C@H](CO)NC(=O)[C@H](C(C)(C)O)NC(=O)[C@H](CC3CCCCC3)NC(=O)[C@H](CCN)NC(=O)[C@@H](CC(C)C)NC(=O)[C@H](CCCN)NC(=O)[C@H](Cc3ccc(OCC(=O)O)cc3)NC(=O)[C@H](Cc3ccc(-c4ccccc4)cc3)NC(=O)[C@H](Cc3cccs3)NC2=O)c1` [Compound 2188] ({CH2CO}-[4Pal]Y(Carboxymethyl)D[Phe(3-Me)][2Thi][Bip]Y(Carboxymethyl)[Orn][dL][Dab][Cha][Val(3-OH)]SC[Dab][Aun]-OH; thioether N-14): the pIC50 is 8.03.

With `Cc1cccc(C[C@@H]2NC(=O)[C@H](CC(=O)O)NC(=O)[C@H](Cc3ccc(OCC(=O)O)cc3)NC(=O)[C@H](Cc3ccncc3)NC(=O)CSC[C@@H](C(=O)N[C@@H](CCN)C(=O)NCCCCCCCCCCC(=O)O)NC(=O)[C@H](CO)NC(=O)[C@H](C(C)(C)O)NC(=O)[C@H](CC3CCCCC3)NC(=O)[C@H](CCN)NC(=O)[C@@H](CC(C)C)NC(=O)[C@H](CCCN)NC(=O)[C@H](Cc3ccc(OCC(=O)O)cc3)NC(=O)[C@H](Cc3ccc(-c4ccccc4)cc3)NC(=O)[C@H](C3CC3)NC2=O)c1` [Compound 2189] ({CH2CO}-[4Pal]Y(Carboxymethyl)D[Phe(3-Me)][Gly(cPr)][Bip]Y(Carboxymethyl)[Orn][dL][Dab][Cha][Val(3-OH)]SC[Dab][Aun]-OH; thioether N-14), the pIC50 is 7.74.

With `Cc1ccc(C[C@@H]2NC(=O)[C@H](Cc3cccc(C)c3)NC(=O)[C@H](CC(=O)O)NC(=O)[C@H](Cc3ccc(OCC(=O)O)cc3)NC(=O)[C@H](Cc3ccncc3)NC(=O)CSC[C@@H](C(=O)N[C@@H](CCN)C(=O)NCCCCCCCCCCC(=O)O)NC(=O)[C@H](CO)NC(=O)[C@H](C(C)(C)O)NC(=O)[C@H](CC3CCCCC3)NC(=O)[C@H](CCN)NC(=O)[C@@H](CC(C)C)NC(=O)[C@H](CCCN)NC(=O)[C@H](Cc3ccc(OCC(=O)O)cc3)NC(=O)[C@H](Cc3ccc(-c4ccccc4)cc3)NC2=O)cc1` [Compound 2190] ({CH2CO}-[4Pal]Y(Carboxymethyl)D[Phe(3-Me)][Phe(4-Me)][Bip]Y(Carboxymethyl)[Orn][dL][Dab][Cha][Val(3-OH)]SC[Dab][Aun]-OH; thioether N-14), the pIC50 was 7.71.

For `Cc1cccc(C[C@@H]2NC(=O)[C@H](CC(=O)O)NC(=O)[C@H](Cc3ccc(OCC(=O)O)cc3)NC(=O)[C@H](Cc3ccncc3)NC(=O)CSC[C@@H](C(=O)N[C@@H](CCN)C(=O)NCCCCCCCCCCC(=O)O)NC(=O)[C@H](CO)NC(=O)[C@H](C(C)(C)O)NC(=O)[C@H](CC3CCCCC3)NC(=O)[C@H](CCN)NC(=O)[C@@H](CC(C)C)NC(=O)[C@H](CCCN)NC(=O)[C@H](Cc3ccc(OCC(=O)O)cc3)NC(=O)[C@H](Cc3ccc(-c4ccccc4)cc3)NC(=O)[C@H](c3ccccc3)NC2=O)c1` [Compound 2191] ({CH2CO}-[4Pal]Y(Carboxymethyl)D[Phe(3-Me)][Phg][Bip]Y(Carboxymethyl)[Orn][dL][Dab][Cha][Val(3-OH)]SC[Dab][Aun]-OH; thioether N-14), the pIC50 is 7.70.

With `Cc1cccc(C[C@@H]2NC(=O)[C@H](CC(=O)O)NC(=O)[C@H](Cc3ccc(OCC(=O)O)cc3)NC(=O)[C@H](Cc3ccncc3)NC(=O)CSC[C@@H](C(=O)N[C@@H](CCN)C(=O)NCCCCCCCCCCC(=O)O)NC(=O)[C@H](CO)NC(=O)[C@H](C(C)(C)O)NC(=O)[C@H](CC3CCCCC3)NC(=O)[C@H](CCN)NC(=O)[C@@H](CC(C)C)NC(=O)[C@H](CCCN)NC(=O)[C@H](Cc3ccc(OCC(=O)O)cc3)NC(=O)[C@H](Cc3ccc(-c4ccccc4)cc3)NC(=O)[C@H](Cc3ccc(C(N)=O)cc3)NC2=O)c1` [Compound 2192] ({CH2CO}-[4Pal]Y(Carboxymethyl)D[Phe(3-Me)][Phe(4-CONH2)][Bip]Y(Carboxymethyl)[Orn][dL][Dab][Cha][Val(3-OH)]SC[Dab][Aun]-OH; thioether N-14), the pIC50 is 8.11.

These data come from patent US20260022142A1, “MACROCYCLIC IMMUNOMODULATORS” (Bristol-Myers Squibb Company, priority 2022, published 2026).
